# Patent US8518945B2, “Pyrrolopyrazine kinase inhibitors” (Hoffmann-La Roche Inc., priority 2010, dated 2013)
# pIC50: −log10 of the molar value.
# How the values were obtained:
# [1] = biological target: T1, h-jak3(810-1124) (JAK3: Recombinant human kinase domain) (Homo sapiens, UniProt P52333); assay: Determination of IC50 of Janus Kinase (JAK) inhibition: JAK3 radioactive end-point 33P-ATP kinase assay; format: biochemical; settings: no additive; ATP 1.5 uM, peptide 50 uM, 20 minutes, room temperature; read-out: Ic50 h-jak3(810-1124)-sf9-c: no additive
# T1 construct: jak3(810- 1124)-sf9-c; made in house; host or cells: Sf9
# T1 sequence (P52333 810-1124): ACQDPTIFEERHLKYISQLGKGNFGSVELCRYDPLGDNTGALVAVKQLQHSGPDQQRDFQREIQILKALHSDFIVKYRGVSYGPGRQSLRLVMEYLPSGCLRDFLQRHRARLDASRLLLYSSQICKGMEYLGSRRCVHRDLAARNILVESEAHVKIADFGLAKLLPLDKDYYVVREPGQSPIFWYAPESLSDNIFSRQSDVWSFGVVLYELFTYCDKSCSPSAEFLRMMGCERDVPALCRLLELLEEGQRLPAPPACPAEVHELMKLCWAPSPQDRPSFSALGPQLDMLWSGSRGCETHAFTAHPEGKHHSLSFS
melting point [°C],pIC50 [1],Structure (SMILES)
175 to 179,–,Cc1nc(-c2cnc3[nH]cc(C(=O)N[C@@H](C(=O)N4CC(C#N)C4)C4CC4)c3n2)cn1-c1ccccc1
201 to 203,–,"CC(C)(C)[C@@H](NC(=O)c1c[nH]c2ncc(C3CC3)nc12)C(=O)N1CCCC1 [Example 1, 2-Cyclopropyl-5H-pyrrolo[2,3-b]pyrazine-7-carboxylic acid [(R)-2,2-dimethyl-1-(pyrrolidine-1-carbonyl)-propyl]-amide]"
210 to 212,–,"CCn1cc(-c2cnc3[nH]cc(C(=O)N[C@@H](C(=O)N4CCCC4)C4CC4)c3n2)cn1 [Example 4, 2-(1-Ethyl-1H-pyrazol-4-yl)-5H-pyrrolo[2,3-b]pyrazine-7-carboxylic acid ((R)-1-cyclopropyl-2-oxo-2-pyrrolidin-1-yl-ethyl)-amide]"
249 to 251,–,"CC(C)(C)[C@@H](NC(=O)c1c[nH]c2ncc(C3CC3)nc12)C(=O)N1CCC(C#N)CC1 [Example 11, 2-Cyclopropyl-5H-pyrrolo[2,3-b]pyrazine-7-carboxylic acid [(R)-1-(4-cyano-piperidine-1-carbonyl)-2,2-dimethyl-propyl]-amide]"
240.9 to 242.5,–,"CC[C@@H](NC(=O)c1c[nH]c2ncc(C3CC3)nc12)C(=O)N1CCCC1 [Example 23, 2-Cyclopropyl-5H-pyrrolo[2,3-b]pyrazine-7-carboxylic acid [(R)-1-(pyrrolidine-1-carbonyl)-propyl]-amide]"
171 to 172.1,–,"CC(C)[C@@H](NC(=O)c1c[nH]c2ncc(C3CC3)nc12)C(=O)N1CCCC1 [Example 24, 2-Cyclopropyl-5H-pyrrolo[2,3-b]pyrazine-7-carboxylic acid [(R)-2-methyl-1-(pyrrolidine-1-carbonyl)-propyl]-amide]"
254 to 256,–,"O=C(N[C@@H](C(=O)N1CCCC1)C1CC1)c1c[nH]c2ncc(C3CC3)nc12 [Example 25, 2-Cyclopropyl-5H-pyrrolo[2,3-b]pyrazine-7-carboxylic acid ((R)-1-cyclopropyl-2-oxo-2-pyrrolidin-1-yl-ethyl)-amide]"
183 to 185,–,"CC(C)[C@@H](NC(=O)c1c[nH]c2ncc(C3CC3)nc12)C(=O)N1CCCCC1 [Example 26, 2-Cyclopropyl-5H-pyrrolo[2,3-b]pyrazine-7-carboxylic acid [(R)-2-methyl-1-(piperidine-1-carbonyl)-propyl]-amide]"
154 to 156,–,"CC(C)[C@@H](NC(=O)c1c[nH]c2ncc(C3CC3)nc12)C(=O)N1CCOCC1 [Example 27, 2-Cyclopropyl-5H-pyrrolo[2,3-b]pyrazine-7-carboxylic acid [(R)-2-methyl-1-(morpholine-4-carbonyl)-propyl]-amide]"
–,≥ 9.49,"CC(=O)N1CCN(c2ccc(-c3cnc4[nH]cc(C(=O)N[C@@H](C(=O)N5CC(C#N)C5)C5CC5)c4n3)cc2)CC1 [Example I-161, 2-[4-(4-Acetyl-piperazin-1-yl)-phenyl]-5H-pyrrolo[2,3-b]pyrazine-7-carboxylic acid [(R)-2-(3-cyano-azetidin-1-yl)-1-cyclopropyl-2-oxo-ethyl]-amide]"
–,≥ 9.49,"N#CC1CN(C(=O)[C@H](NC(=O)c2c[nH]c3ncc(-c4ccc(N5CCOCC5)cc4)nc23)C2CC2)C1 [Example I-163, 2-(4-Morpholin-4-yl-phenyl)-5H-pyrrolo[2,3-b]pyrazine-7-carboxylic acid [(R)-2-(3-cyano-azetidin-1-yl)-1-cyclopropyl-2-oxo-ethyl]-amide]"
–,≥ 9.49,"CN(C)c1ccc(-c2cnc3[nH]cc(C(=O)N[C@@H](C(=O)N4CC(C#N)C4)C4CC4)c3n2)cc1 [Example I-164, 2-(4-Dimethylamino-phenyl)-5H-pyrrolo[2,3-b]pyrazine-7-carboxylic acid [(R)-2-(3-cyano-azetidin-1-yl)-1-cyclopropyl-2-oxo-ethyl]-amide]"
–,≥ 9.49,"N#CC1CN(C(=O)[C@H](NC(=O)c2c[nH]c3ncc(-c4ccccc4)nc23)C2CC2)C1 [Example I-166, 2-Phenyl-5H-pyrrolo[2,3-b]pyrazine-7-carboxylic acid [(R)-2-(3-cyano-azetidin-1-yl)-1-cyclopropyl-2-oxo-ethyl]-amide]"
